# Literature values, collected in patent US7901689B2, “Chimeric peptides as immunogens, antibodies thereto, and methods for immunization using chimeric peptides or antibodies” (Intellect Neurosciences, Inc., priority 1999, dated 2011).
# Experiments:
# [1] = system: Aβ production; conditions: Knops et al., 1995, Haass et al., read-out: EC50 for inhibition of Aβ production
# [2] = system: Aβ-induced toxicity in cultured neurons; conditions: Yankner et al., 1995
# [3] = system: Alzheimer's disease-like pathology in PDAPP transgenic mice; conditions: Schenk et al. 1999
molecule,measurement,setting,value
CO/C1=C\C(C)=C\[C@@H](C)[C@@H](O)[C@@H](C)C/C(C)=C/C=C/[C@H](OC)[C@@H]([C@@H](C)[C@@H](O)[C@H](C)[C@@]2(O)C[C@@H](O)[C@H](C)[C@@H](C(C)C)O2)OC1=O [Bafilomycin],EC50,[1],~0.05 µM
Nc1c(/N=N/c2ccc(-c3ccc(/N=N/c4cc(S(=O)(=O)O)c5ccccc5c4N)cc3)cc2)cc(S(=O)(=O)O)c2ccccc12 [Congo Red],Aβ-induced toxicity in cultured neurons,[2],completely inhibits
amyloid-β: intact amyloid-β used as immunogen by Schenk et al. (1999),"development of β-amyloid plaque formation, neuritic dystrophy and astragliosis",[3]; immunization of young animals prior to onset of neuropathologies,essentially prevented
same,extent and progression of Alzheimer's disease-type neuropathologies,[3]; treatment in older animals after onset of neuropathologies,reduce the extent and progression
